Reference: patent US20260022142A1, “MACROCYCLIC IMMUNOMODULATORS” (Bristol-Myers Squibb Company, priority 2022, published 2026)
Numbered stars: 1 amine (or outer) side, 2 acyl side, 3 side chain; on linkers, the order of the positions; unused ones are H or OH. Bridge positions count the residues as written; N and C are the ends. Square brackets hold non-standard residues; d marks the D form. Peptide text beside a SMILES is read from it. * marks the point of attachment. ξ: configuration not given here. Phe(4-COOH) = N[C@@H](Cc1ccc(C(=O)O)cc1)C(=O)O; d(γGlu) = O=C(O)[C@@H](CCC(=O)[*:2])N[*:1]; Bip = N[C@@H](Cc1ccc(-c2ccccc2)cc1)C(=O)O; Phe(3-Me) = Cc1cccc(C[C@H](N)C(=O)O)c1; hArg = N=C(N)NCCCC[C@H](N)C(=O)O; Cha = N[C@@H](CC1CCCCC1)C(=O)O; Cit = NC(=O)NCCC[C@H](N)C(=O)O; Thr(3ξ) = CC(O)[C@H](N)C(=O)O; dDab = NCC[C@@H](N)C(=O)O; Carboxymethyl = O=C(O)C*; Orn = NCCC[C@H](N)C(=O)O; Aun = NCCCCCCCCCCC(=O)O; Dab = NCC[C@H](N)C(=O)O; AEEA = NCCOCCOCC(=O)O

Target: T1, PD-1/PD-L1 interaction (PE-labeled human PD-L1-Ig binding to Jurkat cell line over-expressing human PD-1) (Homo sapiens, UniProt Q15116)
T1 construct: expressed in transfected cells; host or cells: Jurkat
T1 sequence (Q15116 25-288): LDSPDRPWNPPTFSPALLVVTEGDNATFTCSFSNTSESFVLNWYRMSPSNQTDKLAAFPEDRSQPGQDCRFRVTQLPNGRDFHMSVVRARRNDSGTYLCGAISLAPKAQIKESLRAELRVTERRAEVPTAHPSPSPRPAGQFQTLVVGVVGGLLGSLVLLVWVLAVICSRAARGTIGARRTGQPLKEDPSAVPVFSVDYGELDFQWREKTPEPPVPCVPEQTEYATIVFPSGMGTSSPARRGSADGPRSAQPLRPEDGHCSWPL
Experiment: Jurkat-PD-1 Cell Binding High-Content Screening Assay (CBA)
Assay type: cell-based
Conditions: Jurkat cell line over-expressing human PD-1; PE-labeled PD-L1-Ig 20 nM final; read-out: Jurkat hPD1-PDL1 IC50
In short: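 Binding of fluorescent PD-L1-Ig (20 nM final) to Jurkat-PD-1 cells was measured by automated imaging after 1 h, following a 2 h compound pre-treatment at 37° C.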

Going from `CC(C)C[C@H]1NC(=O)[C@H](CCCN)NC(=O)[C@H](Cc2ccc(O)cc2)NC(=O)[C@H](Cc2ccc(-c3ccccc3)cc2)NC(=O)[C@H](C(C)C)NC(=O)[C@H](Cc2c[nH]c3ccccc23)NC(=O)[C@H](CC(=O)O)NC(=O)[C@H](Cc2ccc(OCC(=O)O)cc2)NC(=O)[C@H](CCCNC(=N)N)NC(=O)CSC[C@@H](C(=O)NCCOCCOCC(=O)NCCCCCCCCCCC(=O)O)NC(=O)[C@H](C(C)O)NC(=O)[C@H](C(C)C)NC(=O)[C@H](CC2CCCCC2)NC(=O)[C@H](CCN)NC1=O` (stereo partly drawn) [Compound 3393] ({CH2CO}-RY(Carboxymethyl)DWV[Bip]Y[Orn][dL][Dab][Cha]V[Thr(3ξ)]C[AEEA][Aun]-OH; thioether N-14) to `CC(=O)NCCCC[C@@H]1NC(=O)[C@H](C(C)C)NC(=O)[C@H](CC2CCCCC2)NC(=O)[C@H](CCN)NC(=O)[C@@H](CC(C)C)NC(=O)[C@H](CCCN)NC(=O)[C@H](Cc2ccc(O)cc2)NC(=O)[C@H](Cc2ccc(-c3ccccc3)cc2)NC(=O)[C@H](C(C)C)NC(=O)[C@H](Cc2c[nH]c3ccccc23)NC(=O)[C@H](CC(=O)O)NC(=O)[C@H](Cc2ccc(OCC(=O)O)cc2)NC(=O)[C@H](CCCNC(=N)N)NC(=O)CSC[C@@H](C(=O)NCCOCCOCC(=O)N[C@H](CCC(=O)NCCCCCCCCCCC(=O)O)C(=O)O)NC1=O` [Compound 3401] ({CH2CO}-RY(Carboxymethyl)DWV[Bip]Y[Orn][dL][Dab][Cha]VK(Ac)C[AEEA][d(γGlu)][Aun]-OH; thioether N-14), the IC50 falls from 12.8 nM to 6.9 nM (1.9-fold). The second is the more potent here.

`Cc1cccc(C[C@@H]2NC(=O)[C@H](CC(=O)O)NC(=O)[C@H](Cc3ccc(OCC(=O)O)cc3)NC(=O)[C@H](C(C)O)NC(=O)CSC[C@@H](C(=O)NCCOCCOCC(=O)NCCCCCCCCCCC(=O)O)NC(=O)[C@H](CCC(N)=O)NC(=O)[C@H](C(C)C)NC(=O)[C@H](CC3CCCCC3)NC(=O)[C@H](CCN)NC(=O)[C@@H](CC(C)C)NC(=O)[C@H](CCN)NC(=O)[C@H](Cc3ccc(O)cc3)NC(=O)[C@H](Cc3ccc(-c4ccccc4)cc3)NC(=O)[C@H](C(C)C)NC2=O)c1` (stereo partly drawn) [Compound 3394] ({CH2CO}-[Thr(3ξ)]Y(Carboxymethyl)D[Phe(3-Me)]V[Bip]Y[Dab][dL][Dab][Cha]VQC[AEEA][Aun]-OH; thioether N-14) and `Cc1cccc(C[C@@H]2NC(=O)[C@H](CC(=O)O)NC(=O)[C@H](Cc3ccc(OCC(=O)O)cc3)NC(=O)[C@H](C(C)O)NC(=O)CSC[C@@H](C(=O)NCCOCCOCC(=O)NCCCCCCCCCCC(=O)O)NC(=O)[C@H](CCCNC(N)=O)NC(=O)[C@H](C(C)C)NC(=O)[C@H](CC3CCCCC3)NC(=O)[C@H](CCN)NC(=O)[C@@H](CC(C)C)NC(=O)[C@H](CCN)NC(=O)[C@H](Cc3ccc(O)cc3)NC(=O)[C@H](Cc3ccc(-c4ccccc4)cc3)NC(=O)[C@H](C(C)C)NC2=O)c1` (stereo partly drawn) [Compound 3397] ({CH2CO}-[Thr(3ξ)]Y(Carboxymethyl)D[Phe(3-Me)]V[Bip]Y[Dab][dL][Dab][Cha]V[Cit]C[AEEA][Aun]-OH; thioether N-14) are within 1.5-fold of each other in IC50: 6.9 nM for the first, 7.4 nM for the second.

`CC(C)C[C@H]1NC(=O)[C@H](CCCN)NC(=O)[C@H](Cc2ccc(O)cc2)NC(=O)[C@H](Cc2ccc(-c3ccccc3)cc2)NC(=O)[C@H](C(C)C)NC(=O)[C@H](Cc2c[nH]c3ccccc23)NC(=O)[C@H](CC(=O)O)NC(=O)[C@H](Cc2ccc(OCC(=O)O)cc2)NC(=O)[C@H](CCCCNC(=N)N)NC(=O)CSC[C@@H](C(=O)N[C@@H](CCN)C(=O)NCCCCCCCCCCC(=O)O)NC(=O)[C@H](CCC(=O)O)NC(=O)[C@H](C(C)C)NC(=O)[C@H](CC2CCCCC2)NC(=O)[C@H](CCN)NC1=O` [Compound 3395] ({CH2CO}-[hArg]Y(Carboxymethyl)DWV[Bip]Y[Orn][dL][Dab][Cha]VEC[Dab][Aun]-OH; thioether N-14) and `CC(C)C[C@H]1NC(=O)[C@H](CCCN)NC(=O)[C@H](Cc2ccc(O)cc2)NC(=O)[C@H](Cc2ccc(-c3ccccc3)cc2)NC(=O)[C@H](C(C)C)NC(=O)[C@H](Cc2c[nH]c3ccccc23)NC(=O)[C@H](CC(=O)O)NC(=O)[C@H](Cc2ccc(OCC(=O)O)cc2)NC(=O)[C@H](CCCNC(=N)N)NC(=O)CSC[C@@H](C(=O)N[C@@H](CCN)C(=O)NCCCCCCCCCCC(=O)O)NC(=O)[C@H](CCC(N)=O)NC(=O)[C@H](C(C)C)NC(=O)[C@H](CC2CCCCC2)NC(=O)[C@H](CCN)NC1=O` [Compound 3405] ({CH2CO}-RY(Carboxymethyl)DWV[Bip]Y[Orn][dL][Dab][Cha]VQC[Dab][Aun]-OH; thioether N-14) are within 1.5-fold of each other in IC50: 10 nM for the first, 8.2 nM for the second.

First: Cc1cccc(C[C@@H]2NC(=O)[C@H](CC(=O)O)NC(=O)[C@H](Cc3ccc(OCC(=O)O)cc3)NC(=O)[C@H](CCCCNC(=N)N)NC(=O)CSC[C@@H](C(=O)NCCOCCOCC(=O)NCCCCCCCCCCC(=O)O)NC(=O)[C@H](CCC(N)=O)NC(=O)[C@H](C(C)C)NC(=O)[C@H](CC3CCCCC3)NC(=O)[C@H](CCN)NC(=O)[C@@H](CC(C)C)NC(=O)[C@H](CCN)NC(=O)[C@H](Cc3ccc(O)cc3)NC(=O)[C@H](Cc3ccc(-c4ccccc4)cc3)NC(=O)[C@H](C(C)C)NC2=O)c1 [Compound 3396] ({CH2CO}-[hArg]Y(Carboxymethyl)D[Phe(3-Me)]V[Bip]Y[Dab][dL][Dab][Cha]VQC[AEEA][Aun]-OH; thioether N-14)
Second: Cc1cccc(C[C@@H]2NC(=O)[C@H](CC(=O)O)NC(=O)[C@H](Cc3ccc(OCC(=O)O)cc3)NC(=O)[C@H](CCCNC(=N)N)NC(=O)CSC[C@@H](C(=O)NCCOCCOCC(=O)NCCCCCCCCCCC(=O)O)NC(=O)[C@H](CCC(N)=O)NC(=O)[C@H](C(C)C)NC(=O)[C@H](CC3CCCCC3)NC(=O)[C@H](CCN)NC(=O)[C@@H](CC(C)C)NC(=O)[C@H](CCN)NC(=O)[C@H](Cc3ccc(O)cc3)NC(=O)[C@H](Cc3ccc(-c4ccccc4)cc3)NC(=O)[C@H](C(C)C)NC2=O)c1 [Compound 3398] ({CH2CO}-RY(Carboxymethyl)D[Phe(3-Me)]V[Bip]Y[Dab][dL][Dab][Cha]VQC[AEEA][Aun]-OH; thioether N-14)
The IC50 of the first is 1.6-fold higher: 9.1 nM for the first, 5.8 nM for the second.

Compared with `CC(C)C[C@H]1NC(=O)[C@H](CCCN)NC(=O)[C@H](CCCNC(N)=O)NC(=O)[C@H](Cc2ccc(-c3ccccc3)cc2)NC(=O)[C@H](C(C)C)NC(=O)[C@H](Cc2c[nH]c3ccccc23)NC(=O)[C@H](CC(=O)O)NC(=O)[C@H](Cc2ccc(OCC(=O)O)cc2)NC(=O)[C@H](CCCNC(=N)N)NC(=O)CSC[C@@H](C(=O)N[C@@H](CCC(=O)O)C(=O)NCCOCCOCC(=O)NCCCCCCCCCCC(=O)O)NC(=O)[C@H](C(C)O)NC(=O)[C@H](C(C)C)NC(=O)[C@H](CC2CCCCC2)NC(=O)[C@H](CCN)NC1=O` (stereo partly drawn) [Compound 3399] ({CH2CO}-RY(Carboxymethyl)DWV[Bip][Cit][Orn][dL][Dab][Cha]V[Thr(3ξ)]CE[AEEA][Aun]-OH; thioether N-14), `Cc1cccc(C[C@@H]2NC(=O)[C@H](CC(=O)O)NC(=O)[C@H](Cc3ccc(OCC(=O)O)cc3)NC(=O)[C@H](CCCNC(=N)N)NC(=O)CSC[C@@H](C(=O)NCCOCCOCC(=O)N[C@H](CCC(=O)NCCCCCCCCCCC(=O)O)C(=O)O)NC(=O)[C@H](C(C)O)NC(=O)[C@H](C(C)C)NC(=O)[C@H](CC3CCCCC3)NC(=O)[C@H](CCN)NC(=O)[C@@H](CC(C)C)NC(=O)[C@H](CCCN)NC(=O)[C@H](CCCNC(N)=O)NC(=O)[C@H](Cc3ccc(-c4ccccc4)cc3)NC(=O)[C@H](C(C)C)NC2=O)c1` (stereo partly drawn) [Compound 3400] ({CH2CO}-RY(Carboxymethyl)D[Phe(3-Me)]V[Bip][Cit][Orn][dL][Dab][Cha]V[Thr(3ξ)]C[AEEA][d(γGlu)][Aun]-OH; thioether N-14) is 2.2-fold lower in IC50: 19.4 nM for the first, 8.7 nM for the second.

Going from `Cc1cccc(C[C@@H]2NC(=O)[C@H](CC(=O)O)NC(=O)[C@H](Cc3ccc(O)cc3)NC(=O)[C@H](CC(N)=O)NC(=O)CSC[C@@H](C(=O)NCCCCCCCCCCC(=O)O)NC(=O)[C@H](CCCNC(N)=O)NC(=O)[C@H](C(C)C)NC(=O)[C@H](CC3CCCCC3)NC(=O)[C@H](CCN)NC(=O)[C@@H](CC(C)C)NC(=O)[C@H](CCCN)NC(=O)[C@H](Cc3ccc(O)cc3)NC(=O)[C@H](Cc3ccc(-c4ccccc4)cc3)NC(=O)[C@H](C(C)C)NC2=O)c1` [Compound 3403] ({CH2CO}-NYD[Phe(3-Me)]V[Bip]Y[Orn][dL][Dab][Cha]V[Cit]C[Aun]-OH; thioether N-14) to `CC(C)C[C@H]1NC(=O)[C@H](CCCN)NC(=O)[C@H](Cc2ccc(O)cc2)NC(=O)[C@H](Cc2ccc(-c3ccccc3)cc2)NC(=O)[C@H](C(C)C)NC(=O)[C@H](Cc2c[nH]c3ccccc23)NC(=O)[C@H](CC(=O)O)NC(=O)[C@H](Cc2ccc(OCC(=O)O)cc2)NC(=O)[C@H](CCCCNC(=N)N)NC(=O)CSC[C@@H](C(=O)N[C@@H](CCN)C(=O)NCCCCCCCCCCC(=O)O)NC(=O)[C@H](CCCNC(N)=O)NC(=O)[C@H](C(C)C)NC(=O)[C@H](CC2CCCCC2)NC(=O)[C@H](CCN)NC1=O` [Compound 3407] ({CH2CO}-[hArg]Y(Carboxymethyl)DWV[Bip]Y[Orn][dL][Dab][Cha]V[Cit]C[Dab][Aun]-OH; thioether N-14), the IC50 rises from 10.7 nM to 21.2 nM (2-fold). The first is the more potent here.

Work on `CC(=O)NCCCC[C@@H]1NC(=O)[C@H](C(C)C)NC(=O)[C@H](CC2CCCCC2)NC(=O)[C@H](CCN)NC(=O)[C@@H](CC(C)C)NC(=O)[C@H](CCCN)NC(=O)[C@H](Cc2ccc(O)cc2)NC(=O)[C@H](Cc2ccc(-c3ccccc3)cc2)NC(=O)[C@H](C(C)C)NC(=O)[C@H](Cc2c[nH]c3ccccc23)NC(=O)[C@H](CC(=O)O)NC(=O)[C@H](Cc2ccc(C(=O)O)cc2)NC(=O)[C@H](Cc2ccc(OCC(=O)O)cc2)NC(=O)CSC[C@@H](C(=O)N[C@H](CCN)C(=O)NCCCCCCCCCCC(=O)O)NC1=O` [Compound 3404] ({CH2CO}-Y(Carboxymethyl)[Phe(4-COOH)]DWV[Bip]Y[Orn][dL][Dab][Cha]VK(Ac)C[dDab][Aun]-OH; thioether N-14) yielded an IC50 of 15 nM.
